Experimental data from the supplement of paper PMC4862054.

Experiments:
Details in all cases: 72 h
HCC1937 [1] = tested on: HCC1937
Experimental: (§1)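 Drug sensitivity and resistance testing (DSRT) of breast cancer cell lines in 384-well plates, 5 concentrations in 10-fold dilutions over a compound-specific 10,000-fold range. After 72 h, cytotoxicity was read by CellTox Green fluorescence and viability by CellTiter-Glo luminescence (multiplexed), normalised to DMSO and benzethonium chloride controls. EC50 is the inflection point of the fitted dose-response curve (bottom asymptote free, so it can be relative for partial curves) and is censored at the highest tested concentration. Rows with DSS 0 (no meaningful response) were excluded.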

MDA-MB-231 [2] = tested on: MDA-MB-231
Experimental: as §1

MDA-MB-468 [3] = tested on: MDA-MB-468
Experimental: as §1

CAL-120 = tested on: CAL-120
Experimental: as §1

MDA-MB-453 [4] = tested on: MDA-MB-453
Experimental: as §1

MDA-MB-436 = tested on: MDA-MB-436
Experimental: as §1

HCC1937 [5] = tested on: HCC1937; remark: listed apart in the source
Outline: (§2)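 For viability and cell death testing, 384-well plates carried compound at 5 concentrations in 10-fold steps over a compound-specific 10,000-fold range, and breast cancer cell lines were seeded in 20 µl suspension. After 72 h incubation, cell death was read by CellTox Green fluorescence (485/520 nm) before viability was read by CellTiter-Glo luminescence. EC50 was fitted from the dose-response curves and censored at the top concentration. Normalisation on each plate was to 0.1 % DMSO and a positive kill control.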

MDA-MB-453 [6] = tested on: MDA-MB-453; remark: listed apart in the source
Outline: as §2

CAL-85-1 = tested on: CAL-85-1
Outline: as §2

CAL-148 [7] = tested on: CAL-148
Experimental: as §1

BT-474 [8] = tested on: BT-474
Experimental: as §1

HCC1143 = tested on: HCC1143
Experimental: as §1

MFM-223 = tested on: MFM-223
Experimental: as §1

CAL-51 = tested on: CAL-51
Experimental: as §1

HDQ-P1 [9] = tested on: HDQ-P1
Experimental: as §1

BT-549 = tested on: BT-549
Experimental: as §1

CAL-148 [10] = tested on: CAL-148; remark: listed apart in the source
Outline: as §2

HDQ-P1 [11] = tested on: HDQ-P1; remark: listed apart in the source
Outline: as §2

HCC1599 [12] = tested on: HCC1599
Outline: as §2

MCF-10A = tested on: MCF-10A
Experimental: as §1

Hs578T [13] = tested on: Hs578T
Experimental: as §1

HCC1937 [14] = tested on: HCC1937; remark: listed apart in the source
Outline: (§3)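 For viability, cells received 2.5 µl CellTiter-Blue for 2 h at 37 °C and fluorescence was read at 560/590 nm. Before this, breast cancer cell lines in 20 µl suspension had been incubated for 72 h on 384-well plates pre-loaded with compound dissolved in 5 µl medium. EC50 was obtained from a percent-inhibition dose-response fit censored at the highest concentration, after normalisation of each plate to vehicle and a positive kill control; rows with a zero drug sensitivity score were discarded.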

MDA-MB-231 [15] = tested on: MDA-MB-231; remark: listed apart in the source
Outline: as §3

MDA-MB-468 [16] = tested on: MDA-MB-468; remark: listed apart in the source
Outline: as §3

Hs578T [17] = tested on: Hs578T; remark: listed apart in the source
Outline: as §3

BT-474 [18] = tested on: BT-474; remark: listed apart in the source
Outline: as §3

SK-BR-3 = tested on: SK-BR-3
Outline: as §3

HCC1599 [19] = tested on: HCC1599; remark: listed apart in the source
Experimental: as §1

DU-4475 = tested on: DU-4475
Experimental: as §1

Row | SMILES | EC50, CellTox Green (HCC1937 [1]) | EC50, CellTox Green (MDA-MB-231 [2]) | EC50, CellTox Green (MDA-MB-468 [3]) | EC50, CellTox Green (CAL-120) | EC50, CellTox Green (MDA-MB-453 [4]) | EC50, CellTox Green (MDA-MB-436) | EC50, CellTiter-Glo (HCC1937 [5]) | EC50, CellTiter-Glo (MDA-MB-453 [6]) | EC50, CellTiter-Glo (CAL-85-1) | EC50, CellTox Green (CAL-148 [7]) | EC50, CellTox Green (BT-474 [8]) | EC50, CellTox Green (HCC1143) | EC50, CellTox Green (MFM-223) | EC50, CellTox Green (CAL-51) | EC50, CellTox Green (HDQ-P1 [9]) | EC50, CellTox Green (BT-549) | EC50, CellTiter-Glo (CAL-148 [10]) | EC50, CellTiter-Glo (HDQ-P1 [11]) | EC50, CellTiter-Glo (HCC1599 [12]) | EC50, CellTox Green (MCF-10A) | EC50, CellTox Green (Hs578T [13]) | EC50, CellTiter-Blue viability (HCC1937 [14]) | EC50, CellTiter-Blue viability (MDA-MB-231 [15]) | EC50, CellTiter-Blue viability (MDA-MB-468 [16]) | EC50, CellTiter-Blue viability (Hs578T [17]) | EC50, CellTiter-Blue viability (BT-474 [18]) | EC50, CellTiter-Blue viability (SK-BR-3) | EC50, CellTox Green (HCC1599 [19]) | EC50, CellTox Green (DU-4475)
1 | CC/C(=C(\c1ccc(O)cc1)c1ccc(OCCN(C)C)cc1)c1ccccc1 [4-hydroxytamoxifen] | 1.93 µM | 4.26 µM | 0.0924 µM | 9.17 µM | 9.55 µM | 2.8 µM | 5.19 µM | 6.91 µM | 3.34 µM |  |  |  |  |  |  |  |  |  |  |  |  |  |  |  |  |  |  |  | 
2 | CC(=O)OC[C@H]1O[C@@H]([S-])[C@H](OC(C)=O)[C@@H](OC(C)=O)[C@@H]1OC(C)=O.CCP(CC)CC.[Au+] [Auranofin] | 0.926 µM | 1.33 µM | 0.412 µM | > 2.5 µM | 1.59 µM |  | 0.552 µM | 0.612 µM | 0.723 µM | 2.06 µM | 0.646 µM | > 2.5 µM | 0.958 µM | 0.186 µM | 0.694 µM | 0.712 µM | 2.19 µM | 1.12 µM | 2.11 µM |  |  |  |  |  |  |  |  |  | 
3 | CO[C@@H](C(=O)N1Cc2[nH]nc(NC(=O)c3ccc(N4CCN(C)CC4)cc3)c2C1)c1ccccc1 [Danusertib] |  |  | 0.0102 µM | 5.63 µM |  | 0.216 µM |  |  |  |  |  |  |  | 0.348 µM | 6.85 µM | > 10 µM | 0.448 µM | 7.43 µM |  | > 10 µM | 0.477 µM | 0.344 µM | 1.18 µM | 0.0719 µM | 1.04 µM |  |  |  | 
4 | Cc1nc(Nc2ncc(C(=O)Nc3c(C)cccc3Cl)s2)cc(N2CCN(CCO)CC2)n1 [Dasatinib] |  | 0.515 µM |  |  |  |  | 0.0547 µM |  | 0.0794 µM |  |  |  |  | 0.0103 µM |  | 0.162 µM |  | 0.0183 µM |  | 0.599 µM | 0.277 µM |  | 0.0168 µM |  | 0.0497 µM |  |  |  | 
5 | Cc1c(CN2CCN(C(=O)[C@H](C)O)CC2)sc2c(N3CCOCC3)nc(-c3cnc(N)nc3)nc12 [GDC-0980] |  |  |  |  |  |  | 3.13 µM | 0.226 µM | 0.628 µM | 0.82 µM | 1.39 µM | 1.46 µM | 1 µM | 2.31 µM | 8.34 µM |  | 0.701 µM | 0.452 µM | 1.34 µM |  |  | 0.214 µM | 0.0904 µM | 0.704 µM | 0.257 µM | 0.318 µM | 0.0818 µM |  | 
6 | Nc1ccccc1NC(=O)c1ccc(CNc2nccc(-c3cccnc3)n2)cc1 [Mocetinostat] | > 10 µM | 1.72 µM | 0.961 µM | 4.51 µM |  | 1.34 µM | 0.567 µM | 1.2 µM | 2.71 µM | 5.35 µM | 6.83 µM | 3.36 µM |  | 1.6 µM | 0.597 µM | 7.7 µM | 2.27 µM | 5.52 µM | 3.02 µM |  | 0.629 µM | 1.96 µM | 2.74 µM | 1.93 µM | 2.67 µM | 5.75 µM | 1.05 µM | 2.1 µM | 
7 | CS(=O)(=O)N1CCN(Cc2cc3nc(-c4cccc5[nH]ncc45)nc(N4CCOCC4)c3s2)CC1 [Pictilisib] |  |  |  |  |  |  | 3.84 µM | 0.508 µM | 0.997 µM | 0.293 µM | 9.3 µM |  | 0.955 µM | 2.09 µM |  |  | 1.35 µM | 0.657 µM |  | 0.27 µM |  |  |  |  |  |  |  |  | 
8 | O=C(NC[C@H](O)CO)c1ccncc1Nc1ccc(I)cc1F [Pimasertib] |  | 0.0166 µM |  | 0.783 µM |  |  | 3.07 µM |  | 1.09 µM |  | 2.84 µM |  |  |  |  |  | 1.01 µM | 0.0186 µM |  |  |  |  |  |  |  |  |  |  | 0.0481 µM
9 | Cn1cc(CNCC2CCN(c3ncc(C(=O)NO)cn3)CC2)c2ccccc21 [Quisinostat] |  | 0.0725 µM | 0.00587 µM | 0.0656 µM | > 1 µM |  | 0.199 µM | 0.011 µM | 0.0341 µM | 0.0521 µM | 0.036 µM | 0.134 µM | 0.0588 µM | 0.116 µM | 0.396 µM |  | 0.0283 µM | 0.148 µM | 0.0713 µM |  | 0.0603 µM |  |  |  |  |  |  | 0.106 µM | 0.0956 µM
10 | CC[C@@]1(O)C(=O)OCc2c1cc1n(c2=O)Cc2cc3c(CN(C)C)c(O)ccc3nc2-1 [Topotecan] | 3.07 µM | 0.369 µM | 2.24 µM | 2.57 µM |  | 2.72 µM | 2.74 µM | 1.83 µM | 0.755 µM | 0.0556 µM | > 10 µM |  |  | 0.195 µM | > 10 µM |  | 0.221 µM |  | 0.189 µM | 1.88 µM |  | 0.0303 µM | 0.612 µM | 0.0719 µM |  |  | 0.052 µM | 0.748 µM | 
